Laboratory results as given in patent US9409952B2, “Peptide-compound cyclization method” (Chugai Seiyaku Kabushiki Kaisha, priority 2011, dated 2016).
Like-named read-outs stand apart in the source and are kept apart here. Positions of bridges follow the written chain, without caps; N, C: chain ends. Non-standard residues stand in square brackets, D forms with d. Residues, ends and D or L forms follow the SMILES beside them. *: point of attachment. Tyr(3-F) = N[C@@H](Cc1ccc(O)c(F)c1)C(=O)O; Arg(Me2s) = CN=C(NC)NCCC[C@H](N)C(=O)O; Met(O2) = CS(=O)(=O)CC[C@H](N)C(=O)O; NMeF = CN[C@@H](Cc1ccccc1)C(=O)O; NMeI = CC[C@H](C)[C@H](NC)C(=O)O; 3Pal = N[C@@H](Cc1cccnc1)C(=O)O; NMeL = CN[C@@H](CC(C)C)C(=O)O; NMeV = CN[C@H](C(=O)O)C(C)C; NMeA = CN[C@@H](C)C(=O)O; Piperidide = C1CCN(*)CC1; dNMeA = CN[C@H](C)C(=O)O; Sar = CNCC(=O)O

Assays:
[1] = Metabolic stability in human hepatic microsome; format: in vitro ADME; settings: microsomes
[2] = PAMPA (parallel artificial membrane permeability assay); format: in vitro ADME; settings: for Papp at 18 hours, 50 µM: PAMPA
In short: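 Artificial membrane was 10% (w/v) egg lecithin plus 0.5% (w/v) cholesterol in dodecane on a PVDF filter. A 10 mM DMSO stock was added at 0.5% (v/v) to donor buffer (50 mM MOPSO, pH 6.5, 5.0% glycocholic acid). After 18 h at 37 °C, LC/MS or LC/UV gave donor and acceptor levels for Pe.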

[3] = pH 7.4, human hepatic microsome, NADPH(+), read-out: CL NADPH(+)
[4] = membrane permeation rate (Pe), 50 mM MOPSO buffer pH 6.5 with 5.0% glycocholic acid, 37° C., 18 hours, read-out: iPAMPA Pe

Compound	microsomal CLint at 1 uM [1, 3] [µL/min/mg]	Papp at 18 hours, 50 µM [2, 4] [×10⁻⁶ cm/s]	microsomal CLint at 1 uM ([1]; human, pH 7.4, CL NADPH(+)) [µL/min/mg]	Papp at 18 hours, 50 µM ([2]; pH 6.5) [×10⁻⁶ cm/s]	iPAMPA Pe ([2]; membrane permeation rate (Pe), 50 mM MOPSO buffer pH 6.5 with 5.0% glycocholic acid, 37° C., 18 hours)
CC[C@H](C)[C@@H]1NC(=O)[C@H](CC(C)C)N(C)C(=O)CN(C)C(=O)[C@H](Cc2ccccc2)NC(=O)[C@H](C(C)C)N(C)C(=O)[C@H](C)N(C)C(=O)[C@H]([C@@H](C)O)NC(=O)[C@H](C)N(C)C(=O)C[C@@H](C(=O)N(C)[C@@H](CC(C)C)C(=O)N[C@H](C(=O)N(C)[C@@H](CC(C)C)C(=O)N[C@@H](C)C(=O)N2CCCCC2)[C@@H](C)O)NC(=O)[C@H](C)NC1=O [DP-581] ([NMeA]T[NMeA][NMeV]F[Sar][NMeL]IAD[NMeL]T[NMeL]A-Piperidide; lactam N-10)	7	2.7	–	–	–
CC(C)C[C@@H](C(=O)N[C@@H](C)C(=O)N1CCCCC1)N(C)C(=O)[C@H](C)N(C)C(=O)[C@@H]1CC(=O)N[C@H](C(C)C)C(=O)N(C)[C@@H](C)C(=O)N(C)[C@@H](CC(C)C)C(=O)N(C)[C@@H](CC(C)C)C(=O)N(C)CC(=O)N(C)[C@@H](Cc2ccccc2)C(=O)N[C@@H](C)C(=O)N(C)[C@@H](Cc2ccccc2)C(=O)N(C)[C@@H](CC(C)C)C(=O)N[C@@H]([C@@H](C)O)C(=O)N1 [DP-582] ([dV][NMeA][NMeL][NMeL][Sar][NMeF]A[NMeF][NMeL]TD[NMeA][NMeL]A-Piperidide; lactam N-11)	12	21	–	–	–
CC[C@H](C)[C@@H](C(=O)N[C@@H](Cc1ccccc1)C(=O)N1CCCCC1)N(C)C(=O)[C@@H]1CC(=O)N(C)[C@H](C)C(=O)N(C)[C@@H](CC(C)C)C(=O)N[C@@H](Cc2ccccc2)C(=O)N[C@@H]([C@@H](C)O)C(=O)N(C)CC(=O)N(C)[C@@H](C)C(=O)N(C)[C@@H](C(C)C)C(=O)N[C@@H](C)C(=O)N(C)[C@@H](CC(C)C)C(=O)N[C@@H](CC(C)C)C(=O)N1 [DP-583] ([dNMeA][NMeL]FT[Sar][NMeA][NMeV]A[NMeL]LD[NMeI]F-Piperidide; lactam N-11)	27	25	–	–	–
CC[C@H](C)[C@H](NC(=O)[C@H](C)N(C)C(=O)[C@@H]1CC(=O)N[C@H](C(C)C)C(=O)N(C)[C@@H](C)C(=O)N(C)[C@@H](CC(C)C)C(=O)N(C)[C@@H](CC(C)C)C(=O)N(C)CC(=O)N(C)[C@@H](Cc2ccccc2)C(=O)N[C@@H](C)C(=O)N(C)[C@@H](Cc2ccccc2)C(=O)N(C)[C@@H](CC(C)C)C(=O)N[C@@H]([C@@H](C)O)C(=O)N1)C(=O)N1CCCCC1 [DP-584] ([dV][NMeA][NMeL][NMeL][Sar][NMeF]A[NMeF][NMeL]TD[NMeA]I-Piperidide; lactam N-11)	20	18	–	–	–
CC(C)C[C@H]1C(=O)N[C@@H](C(C)C)C(=O)N(C)[C@@H](CC(C)C)C(=O)N(C)[C@@H](CC(C)C)C(=O)N[C@H](C(=O)N(C)[C@@H](Cc2ccccc2)C(=O)N[C@@H](C)C(=O)N2CCCCC2)CC(=O)N[C@H](C(C)C)C(=O)N(C)[C@@H](CC(C)C)C(=O)N(C)[C@@H](Cc2ccccc2)C(=O)N(C)[C@@H](CC(C)C)C(=O)N[C@@H](Cc2c[nH]cn2)C(=O)N1C [DP-586] ([dV][NMeL][NMeF][NMeL]H[NMeL]V[NMeL][NMeL]D[NMeF]A-Piperidide; lactam N-10)	15	0.44	–	–	–
CC(C)C[C@H]1C(=O)N(C)[C@@H](CC(C)C)C(=O)N[C@H](C(=O)N(C)[C@@H](Cc2ccccc2)C(=O)N[C@@H](C)C(=O)N2CCCCC2)CC(=O)N[C@H](C(C)C)C(=O)N(C)[C@@H](C)C(=O)N(C)[C@@H](Cc2ccccc2)C(=O)N(C)[C@@H](CC(C)C)C(=O)N[C@@H](Cc2cccnc2)C(=O)N(C)CC(=O)N[C@@H](C)C(=O)N1C [DP-591] ([dV][NMeA][NMeF][NMeL][3Pal][Sar]A[NMeL][NMeL]D[NMeF]A-Piperidide; lactam N-10)	15	26	–	–	–
CC(C)C[C@@H]1NC(=O)[C@H](Cc2c[nH]cn2)NC(=O)[C@H](Cc2ccccc2)N(C)C(=O)[C@H](CC(C)C)NC(=O)[C@H](CC(C)C)N(C)C(=O)[C@H](Cc2ccccc2)NC(=O)[C@H](CC(C)C)N(C)C(=O)[C@H](CC(C)C)N(C)C(=O)[C@H](Cc2ccccc2)NC(=O)CN(C)C(=O)C[C@@H](C(=O)N(C)[C@@H](Cc2ccccc2)C(=O)N[C@@H](C)C(=O)N2CCCCC2)NC1=O [DP-592] ([Sar]F[NMeL][NMeL]F[NMeL]L[NMeF]HLD[NMeF]A-Piperidide; lactam N-11)	5	0.18	–	–	–
CC(C)C[C@@H]1NC(=O)[C@H](CCC(=O)O)NC(=O)[C@@H]2CCCN2C(=O)[C@H](CC(C)C)NC(=O)[C@H](CC(C)C)N(C)C(=O)[C@H](Cc2ccccc2)NC(=O)[C@H](C)N(C)C(=O)[C@H](CC(C)C)N(C)C(=O)[C@H](Cc2ccccc2)NC(=O)CN(C)C(=O)C[C@@H](C(=O)N(C)[C@@H](Cc2ccccc2)C(=O)N[C@@H](C)C(=O)N2CCCCC2)NC1=O [DP-595] ([Sar]F[NMeL][NMeA]F[NMeL]LPELD[NMeF]A-Piperidide; lactam N-11)	–	–	9	4.9	–
C/N=C(\NC)NCCC[C@@H]1NC(=O)[C@@H]2CCCN2C(=O)[C@H](CC(C)C)NC(=O)[C@H](CC(C)C)N(C)C(=O)[C@H](Cc2ccccc2)NC(=O)CN(C)C(=O)[C@H](CC(C)C)N(C)C(=O)[C@H](Cc2ccccc2)NC(=O)CN(C)C(=O)C[C@@H](C(=O)N(C)[C@@H](Cc2ccccc2)C(=O)N[C@@H](C)C(=O)N2CCCCC2)NC(=O)[C@H](CC(C)C)NC1=O [DP-597] ([Sar]F[NMeL][Sar]F[NMeL]LP[Arg(Me2s)]LD[NMeF]A-Piperidide; lactam N-11)	–	–	12	1.7	–
CC(C)C[C@@H]1NC(=O)[C@H](Cc2cccnc2)NC(=O)[C@@H]2CCCN2C(=O)[C@H](C)NC(=O)[C@H](CC(C)C)N(C)C(=O)[C@H](Cc2ccccc2)NC(=O)[C@H](C)N(C)C(=O)[C@H](CC(C)C)N(C)C(=O)[C@H](Cc2ccccc2)NC(=O)[C@H](C)N(C)C(=O)C[C@@H](C(=O)N(C)[C@@H](Cc2ccccc2)C(=O)N[C@@H](C)C(=O)N2CCCCC2)NC1=O [DP-599] ([NMeA]F[NMeL][NMeA]F[NMeL]AP[3Pal]LD[NMeF]A-Piperidide; lactam N-11)	–	–	84	28	–
CC(C)C[C@@H]1NC(=O)[C@H](Cc2cccnc2)NC(=O)[C@H](Cc2ccccc2)N(C)C(=O)[C@H](CC(C)C)NC(=O)[C@H](CC(C)C)N(C)C(=O)[C@H](Cc2ccccc2)NC(=O)[C@H](CC(C)C)N(C)C(=O)[C@H](CC(C)C)N(C)C(=O)[C@H](Cc2ccccc2)NC(=O)CN(C)C(=O)C[C@@H](C(=O)N(C)[C@@H](Cc2ccccc2)C(=O)N[C@@H](C)C(=O)N2CCCCC2)NC1=O [DP-600] ([Sar]F[NMeL][NMeL]F[NMeL]L[NMeF][3Pal]LD[NMeF]A-Piperidide; lactam N-11)	12	–	–	–	1.0E−07
CC(C)C[C@@H]1NC(=O)[C@H](CC(C)C)N(C)C(=O)[C@H](CC(C)C)N(C)C(=O)[C@H](CC(C)C)NC(=O)[C@H](Cc2ccccc2)N(C)C(=O)[C@H](CCS(C)(=O)=O)NC(=O)[C@H](CC(C)C)N(C)C(=O)[C@H](Cc2ccccc2)NC(=O)[C@H](C)NC(=O)C[C@@H](C(=O)N(C)[C@@H](Cc2ccccc2)C(=O)N[C@@H](C)C(=O)N2CCCCC2)NC1=O [DP-607] (AF[NMeL][Met(O2)][NMeF]L[NMeL][NMeL]LD[NMeF]A-Piperidide; lactam N-10)	2	1.2	–	–	–
CC(C)C[C@@H]1NC(=O)[C@H](CC(C)C)N(C)C(=O)[C@H](C)N(C)C(=O)[C@@H](C(C)C)NC(=O)C[C@@H](C(=O)N2CCCCC2)NC(=O)[C@H](CCC(N)=O)NC(=O)[C@H](CC(C)C)N(C)C(=O)CN(C)C(=O)[C@H](CC(C)C)N(C)C(=O)[C@H](Cc2ccccc2)NC(=O)[C@H](Cc2ccccc2)N(C)C1=O [DP-617] ([dV][NMeA][NMeL]L[NMeF]F[NMeL][Sar][NMeL]QD-Piperidide; lactam N-11)	30	29	–	–	–
CC(C)C[C@@H]1NC(=O)[C@H](CC(C)C)N(C)C(=O)[C@H](C)N(C)C(=O)[C@@H](C(C)C)NC(=O)C[C@@H](C(=O)N2CCCCC2)NC(=O)[C@H](CCC(=O)N(C)C)NC(=O)[C@H](CC(C)C)N(C)C(=O)[C@H](C)N(C)C(=O)[C@H](CC(C)C)N(C)C(=O)[C@H](Cc2ccccc2)NC(=O)[C@H](Cc2ccccc2)N(C)C1=O [DP-618] ([dV][NMeA][NMeL]L[NMeF]F[NMeL][NMeA][NMeL]E(NMe2)D-Piperidide; lactam N-11)	39	28	–	–	–
CC(C)C[C@@H]1NC(=O)[C@H](CC(C)C)N(C)C(=O)[C@H](C)N(C)C(=O)[C@@H](C(C)C)NC(=O)C[C@@H](C(=O)N2CCCCC2)NC(=O)[C@H]([C@@H](C)O)NC(=O)[C@H](C)N(C)C(=O)[C@H](C)N(C)C(=O)[C@H](CC(C)C)N(C)C(=O)[C@H](Cc2ccc(O)c(F)c2)NC(=O)[C@H](Cc2ccccc2)N(C)C1=O [DP-619] ([dV][NMeA][NMeL]L[NMeF][Tyr(3-F)][NMeL][NMeA][NMeA]TD-Piperidide; lactam N-11)	29	12	–	–	–
CC(C)C[C@@H]1NC(=O)[C@H](CC(C)C)N(C)C(=O)[C@H](C)N(C)C(=O)[C@@H](C(C)C)NC(=O)C[C@@H](C(=O)N2CCCCC2)NC(=O)[C@H](CCS(C)(=O)=O)NC(=O)[C@H](CC(C)C)N(C)C(=O)[C@H](C)N(C)C(=O)[C@H](CC(C)C)N(C)C(=O)[C@H](Cc2ccccc2)NC(=O)[C@H](Cc2ccccc2)N(C)C1=O [DP-620] ([dV][NMeA][NMeL]L[NMeF]F[NMeL][NMeA][NMeL][Met(O2)]D-Piperidide; lactam N-11)	26	24	–	–	–
